Experimental data: ChEMBL document CHEMBL1136854, “Synthesis and pharmacological evaluation of aminopyrimidine series of 5-HT1A partial agonists” (Bioorg Med Chem Lett, 2009)

Assay: in vitro
Conditions: human, liver microsomes

Structure (SMILES) | CLint scaled [mL/min/kg] | CLint scaled (CL) [mL/min/kg]
c1cc(C2CCCN(CCc3cscn3)C2)nc(NC2CC2)n1 (centres undefined) | 15 | 
O=C1CC2(CCCC2)CC(=O)N1CCCCN1CCN(c2ncccn2)CC1 [BUSPIRONE] |  | 148
Cc1[nH]c2ccc(Cl)cc2c1CCN1CCCC(c2ccnc(NC3CC3)n2)C1 (centres undefined) |  | 135
Fc1cccc2c(CCN3CCCC(c4ccnc(NC5CC5)n4)C3)c[nH]c12 (centres undefined) |  | 28
